Measured values from ChEMBL document CHEMBL1201862, “PubChem BioAssay data set” (2004).
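Five concentrations, 48 hours, 96-well plates. GI50 marks 50% less growth.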 Activity calls are given as the source filed them. Cut-off read from the data, not from the text of the source: active = GI50 up to about 1.1 µM and inactive = higher.

What was measured:
Assay in all cases: NCI tumour cell line growth inhibition, 48 h
[1] = system: HCT-116
[2] = system: LOX IMVI
[3] = system: SK-MEL-2
[4] = system: HCC 2998
[5] = system: MCF7
[6] = system: OVCAR-3
[7] = system: SF-295
[8] = system: OVCAR-4
[9] = system: M14
[10] = system: PC-3
[11] = system: T47D
[12] = system: ACHN
[13] = system: NCI-H460
[14] = system: SW-620
[15] = system: MDA-MB-435
[16] = system: A549
[17] = system: SR
[18] = system: Malme-3M
[19] = system: HCT-15
[20] = system: Hs-578T
[21] = system: HOP-62
[22] = system: HL-60
[23] = system: UACC-62
[24] = system: TK-10
[25] = system: IGROV-1
[26] = system: CAKI-1
[27] = system: COLO 205
[28] = system: CCRF-CEM
[29] = system: NCI-H226
[30] = system: SNB-19
[31] = system: UACC-257
[32] = system: SK-OV-3
[33] = system: MDA-MB-231
[34] = system: SK-MEL-5
[35] = system: UO-31
[36] = system: KM12
[37] = system: A498
[38] = system: DU-145
[39] = system: OVCAR-5
[40] = system: NCI-H522
[41] = system: OVCAR-8
[42] = system: MDA-N
[43] = system: U-251
[44] = system: SN12C
[45] = system: MOLT-4
[46] = system: NCI/ADR-RES
[47] = system: K562
[48] = system: NCI-H23
[49] = system: BT-549
[50] = system: SF-268
[51] = system: SK-MEL-28
[52] = system: EKVX
[53] = system: HT-29
[54] = system: 786-0
[55] = system: RPMI-8226
[56] = system: SF-539

`Nc1ccc(CCN2CCN(CCCc3ccccc3)CC2)cc1` was tested, and the GI50 [1] was 31.9 µM (inactive), the GI50 [2] was 63.7 µM (inactive) and the GI50 [3] was > 100 µM (inactive). The GI50 [4] was 34.4 µM (inactive), the GI50 [5] was 28.6 µM (inactive) and the GI50 [6] was 48.1 µM (inactive). For the same molecule, the GI50 [7] was > 100 µM (inactive), the GI50 [8] was 53.1 µM (inactive) and the GI50 [9] was 39.4 µM (inactive). For the same molecule, the GI50 [10] was > 100 µM (inactive), the GI50 [11] was 14.7 µM (inactive) and the GI50 [12] was > 100 µM (inactive). The GI50 [13] was 63.4 µM (inactive), the GI50 [14] was > 100 µM (inactive) and the GI50 [15] was > 100 µM (inactive). For the same molecule, the GI50 [16] was > 100 µM (inactive), the GI50 [17] was 27.6 µM (inactive) and the GI50 [18] was 38.5 µM (inactive). The GI50 [19] was 21.7 µM, the GI50 [20] was > 100 µM (inactive) and the GI50 [21] was > 100 µM (inactive). For the same molecule, the GI50 [22] was 26.6 µM (inactive), the GI50 [23] was > 100 µM (inactive) and the GI50 [24] was > 100 µM (inactive). For the same molecule, the GI50 [25] was 98.6 µM (inactive), the GI50 [26] was > 100 µM (inactive) and the GI50 [27] was 27.7 µM (inactive). The GI50 [28] was 48.2 µM (inactive), the GI50 [29] was > 100 µM (inactive) and the GI50 [30] was > 100 µM (inactive). For the same molecule, the GI50 [31] was 62.4 µM (inactive), the GI50 [32] was > 100 µM (inactive) and the GI50 [33] was 60.8 µM (inactive). The GI50 [34] was 29.6 µM (inactive), the GI50 [35] was 56.9 µM (inactive) and the GI50 [36] was 82.8 µM (inactive). For the same molecule, the GI50 [37] was > 100 µM (inactive), the GI50 [38] was 70.3 µM (inactive) and the GI50 [39] was > 100 µM (inactive). For the same molecule, the GI50 [40] was 39.2 µM (inactive), the GI50 [41] was 47.1 µM (inactive) and the GI50 [42] was > 100 µM (inactive). For the same molecule, the GI50 [43] was > 100 µM (inactive), the GI50 [44] was > 100 µM (inactive) and the GI50 [45] was 50.4 µM (inactive). The GI50 [46] was 86.9 µM (inactive), the GI50 [47] was 24.2 µM (inactive) and the GI50 [48] was 79.4 µM (inactive). For the same molecule, the GI50 [49] was 80.7 µM (inactive), the GI50 [50] was > 100 µM (inactive) and the GI50 [51] was > 100 µM (inactive). For the same molecule, the GI50 [52] was > 100 µM (inactive), the GI50 [53] was 16.2 µM (inactive) and the GI50 [54] was 44.3 µM (inactive). For the same molecule, the GI50 [55] was 46.7 µM (inactive) and the GI50 [56] was 80.5 µM (inactive).
